Test results: patent US20240043427A1 (Gilead Sciences, Inc., priority 2020, published 2024)

Tests used:
[1] = biological target: T1, CD73 (Homo sapiens (Human), UniProt P21589); type: biochemical; conditions: 1 mM NaH2PO4 in enzyme buffer, CD73 0.3 nM, AMP 15 uM
[2] = biological target: T1, CD73; test: MDA-MB-231 Cell Based CD73 Activity Assay (DMEM); conditions: MDA-MB-231-GFP cells, DMEM medium with 10% human plasma, 200 uM AMP

T1 sequence (P21589 27-574): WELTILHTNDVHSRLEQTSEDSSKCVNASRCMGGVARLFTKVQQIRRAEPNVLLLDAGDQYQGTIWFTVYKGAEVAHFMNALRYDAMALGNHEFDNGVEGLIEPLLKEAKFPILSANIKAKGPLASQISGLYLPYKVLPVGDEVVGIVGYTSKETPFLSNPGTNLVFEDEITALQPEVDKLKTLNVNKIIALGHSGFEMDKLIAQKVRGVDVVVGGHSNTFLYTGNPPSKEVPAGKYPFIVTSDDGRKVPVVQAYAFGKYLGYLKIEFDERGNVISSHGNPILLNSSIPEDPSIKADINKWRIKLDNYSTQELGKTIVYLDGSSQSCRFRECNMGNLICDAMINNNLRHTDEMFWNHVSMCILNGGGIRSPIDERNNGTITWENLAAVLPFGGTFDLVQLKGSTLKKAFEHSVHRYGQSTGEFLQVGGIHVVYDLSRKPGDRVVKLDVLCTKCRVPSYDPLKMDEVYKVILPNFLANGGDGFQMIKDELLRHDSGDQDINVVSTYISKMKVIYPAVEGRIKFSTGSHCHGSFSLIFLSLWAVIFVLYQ

| Compound | IC50 [1] [nM] | EC50 [2] [nM] |
| --- | --- | --- |
| O=c1[nH]cc(-c2cc([C@H]3C[C@@H]3c3ccc(F)cc3F)n3nccc3n2)c(=O)[nH]1 [Example 469, 5-(7-((1S,2S)-2-(2,4-difluorophenyl)cyclopropyl)pyrazolo[1,5-a]pyrimidin-5-yl)pyrimidine-2,4(1H,3H)-dione] | 1.73 | 15 |
| O=C(c1cn2nc(-c3c[nH]c(=O)[nH]c3=O)cc([C@H]3C[C@@H]3c3ccc(F)cc3)c2n1)N1CCC(F)(F)C1 (racemic) [Example 199, 5-[2-(3,3-difluoropyrrolidine-1-carbonyl)-8-[(1S,2S)-2-(4-fluorophenyl)cyclopropyl]imidazo[1,2-b]pyridazin-6-yl]-1H-pyrimidine-2,4-dione] | > 250 | 755 |
| CC1(C)CN(c2cc(-c3c[nH]c(=O)[nH]c3=O)nn3c(Cl)c(Cl)nc23)CC1(F)F [Example 515, 5-(2,3-dichloro-8-(3,3-difluoro-4,4-dimethylpyrrolidin1-yl)imidazo[1,2-b]pyridazin-6-yl)pyrimidine-2,4(1H,3H)-dione] | 1.72 | 228 |
| O=c1[nH]cc(-c2cc([C@H]3C[C@@H]3c3cc(F)c4cnn(CC(F)(F)F)c4c3)c3nccn3n2)c(=O)[nH]1 [Example 596, 5-(8-((1S,2S)-2-(4-fluoro-1-(2,2,2-trifluoroethyl)-1H-indazol-6-yl)cyclopropyl)imidazo[1,2-b]pyridazin-6-yl)pyrimidine-2,4(1H,3H)-dione] | 0.7 | 0.14 |
| O=C(c1cn2nc(-c3c[nH]c(=O)[nH]c3=O)cc([C@H]3C[C@@H]3c3ccc(F)cc3)c2n1)N1CC(F)(F)C1 (racemic) [Example 198, 5-[2-(3,3-difluoroazetidine-1-carbonyl)-8-[(1S,2S)-2-(4-fluorophenyl)cyclopropyl]imidazo[1,2-b]pyridazin-6-yl]-1H-pyrimidine-2,4-dione] | 85.2 | 191 |
| N#Cc1ccc(O[C@H]2CN(c3cc(-c4c[nH]c(=O)[nH]c4=O)nn4ccnc34)CC2(F)F)nc1 [Example 339, (S)-6-((1-(6-(2,4-dioxo-1,2,3,4-tetrahydropyrimidin-5-yl)imidazo[1,2-b]pyridazin-8-yl)-4,4-difluoropyrrolidin-3-yl)oxy)nicotinonitrile] | 0.91 | 2.6 |
| O=c1[nH]cc(-c2cc([C@H]3C[C@@H]3c3cnc4c(F)nn(CC(F)(F)F)c4c3)c3nccn3n2)c(=O)[nH]1 [Example 717, 5-[8-[(1S,2S)-2-[3-fluoro-1-(2,2,2-trifluoroethyl)pyrazolo[4,3-b]pyridin-6-yl]cyclopropyl]imidazo[1,2-b]pyridazin-6-yl]-1H-pyrimidine-2,4-dione] | 0.69 | 0.26 |
| O=c1[nH]cc(-c2cc([C@@H]3C[C@H]3c3cc4c(cn3)cnn4CC(F)(F)F)c3ncc(F)n3n2)c(=O)[nH]1 [Example 612, 5-(3-fluoro-8-((1R,2R)-2-(1-(2,2,2-trifluoroethyl)-1H-pyrazolo[4,3-c]pyridin-6-yl)cyclopropyl)imidazo[1,2-b]pyridazin-6-yl)pyrimidine-2,4(1H,3H)-dione] | 6.06 | 1.02 |
| O=c1[nH]cc(-c2cc(N3CC(c4ccccc4)C(F)(F)C3)c3nccn3n2)c(=O)[nH]1 (stereo not drawn) [Example 346, 5-(8-(3,3-difluoro-4-phenylpyrrolidin-1-yl)imidazo[1,2-b]pyridazin-6-yl)pyrimidine-2,4(1H,3H)-dione] | 6.08 | 24.4 |
| O=c1[nH]cc(-c2cc(NCC(F)(F)F)c3nccn3n2)c(=O)[nH]1 [Example 672, 5-(8-((2,2,2-trifluoroethyl)amino)imidazo[1,2-b]pyridazin-6-yl)pyrimidine-2,4(1H,3H)-dione] | 148 | 383 |
| CC1(C)CC(=O)N(c2cc(-c3c[nH]c(=O)[nH]c3=O)nn3ccnc23)C1 [Example 513, 5-(8-(4,4-dimethyl-2-oxopyrrolidin-1-yl)imidazo[1,2-b]pyridazin-6-yl)pyrimidine-2,4(1H,3H)-dione] | > 250 | 934 |
| N#Cc1cc(F)c([C@H]2C[C@@H]2c2cc(-c3c[nH]c(=O)[nH]c3=O)nn3c(F)cnc23)c(F)c1 [Example 425, 4-((1S,2S)-2-(6-(2,4-dioxo-1,2,3,4-tetrahydropyrimidin-5-yl)-3-fluoroimidazo[1,2-b]pyridazin-8-yl)cyclopropyl)-3,5-difluorobenzonitrile] | 1.63 | 5.63 |
| O=c1[nH]cc(-c2cc(N3CCC(F)(c4ccc(C(F)(F)F)cc4)C3)c3nccn3n2)c(=O)[nH]1 (stereo not drawn) [Example 256, 5-(8-(3-fluoro-3-(4-(trifluoromethyl)phenyl)pyrrolidin-1-yl)imidazo[1,2-b]pyridazin-6-yl)pyrimidine-2,4(1H,3H)-dione] | 43.1 | 185 |
| O=c1[nH]cc(-c2cc(OCCC(F)(F)F)c3nccn3n2)c(=O)[nH]1 [Example 681, 5-(8-(3,3,3-trifluoropropoxy)imidazo[1,2-b]pyridazin-6-yl)pyrimidine-2,4(1H,3H)-dione] | 61.3 | 94 |
| O=c1[nH]cc(-c2cc(N3CC(Cc4ccc(F)cc4F)C3)c3nccn3n2)c(=O)[nH]1 [Example 450, 5-(8-(3-(2,4-difluorobenzyl)azetidin-1-yl)imidazo[1,2-b]pyridazin-6-yl)pyrimidine-2,4(1H,3H)-dione] | 230 | 250 |
| CC(C)NC(=O)OCC(F)(F)COc1cc(-c2c[nH]c(=O)[nH]c2=O)nn2ccnc12 [Example 694, 3-((6-(2,4-dioxo-1,2,3,4-tetrahydropyrimidin-5-yl)imidazo[1,2-b]pyridazin-8-yl)oxy)-2,2-difluoropropyl isopropylcarbamate] | 0.61 | 0.23 |
| O=c1[nH]cc(-c2cc(N3CC(Oc4cnc(C(F)(F)F)cn4)C(F)(F)C3)c3nccn3n2)c(=O)[nH]1 (stereo not drawn) [Example 340, 5-(8-(3,3-difluoro-4-((5-(trifluoromethyl)pyrazin-2-yl)oxy)pyrrolidin-1-yl)imidazo[1,2-b]pyridazin-6-yl)pyrimidine-2,4(1H,3H)-dione] | 1.48 | 19 |
| O=c1[nH]cc(-c2cc(N3CC(F)(C(F)(F)F)C3)c3nccn3n2)c(=O)[nH]1 [Example 397, 5-(8-(3-fluoro-3-(trifluoromethyl)azetidin-1-yl)imidazo[1,2-b]pyridazin-6-yl)pyrimidine-2,4(1H,3H)-dione] | 15.3 | 22.5 |
| O=c1[nH]cc(-c2cc(N3CC4CCC3CC4)c3nccn3n2)c(=O)[nH]1 [Example 647, 5-(8-(2-azabicyclo[2.2.2]octan-2-yl)imidazo[1,2-b]pyridazin-6-yl)pyrimidine-2,4(1H,3H)-dione] | 129 | 234 |
| O=c1[nH]cc(-c2cc([C@H]3C[C@@H]3c3ccc(OC(F)F)cn3)c3ncc(F)n3n2)c(=O)[nH]1 [Example 132, 5-(8-((1S,2S)-2-(5-(difluoromethoxy)pyridin-2-yl)cyclopropyl)-3-fluoroimidazo[1,2-b]pyridazin-6-yl)pyrimidine-2,4(1H,3H)-dione] | 1.21 | 19.4 |
| O=c1[nH]cc(-c2cc([C@H]3C[C@@H]3c3ccc(Cl)cn3)c3ncc(F)n3n2)c(=O)[nH]1 [Example 584, 5-(8-((1S,2S)-2-(5-chloropyridin-2-yl)cyclopropyl)-3-fluoroimidazo[1,2-b]pyridazin-6-yl)pyrimidine-2,4(1H,3H)-dione] | 0.91 | 2.98 |
